Reference: patent publication US6526316B2, “Iontophoresis method” (Hisamitsu Pharmaceutical Co., Inc., priority 1997, dated 2003)

Key:
[1] = Serum hPTH(1-34) concentration during transdermal iontophoresis (Example 1); type: in vivo, rat; settings: male SD rats; iontophoresis anode patch 200 μg or 400 μg; 0.1 mA/cm^2, 30 min current and 45 min rest repeated three times; radio immunoassay; FIG. 3
Method: Hair on the abdominal skin of male, SD rats (7 weeks old) was shaved off. To the shaved part was attached the iontophoresis apparatus which comprises an anode patch containing 200 μg or 400 μg of hPTH(1-34) and a cathode patch without hPTH(1-34), as mentioned above. The apparatus was connected to an electric generator (50 kHz and 50% duty), and an electric current application using constant transport current (0.1 mA/cm^2) for 30 minutes and a 45-minute rest interval (corresponding to blood concentration of one pulse) was repeated three times. During the repetitions, blood was taken periodically, and concentration of hPTH(1-34) in serum was measured by radio immunoassay.

[2] = Serum hPTH(1-34) concentration after repeated intradermal injection (Reference Example 1); type: in vivo, rat; settings: intradermal injection three times at 1 hour intervals, 1 μg/kg or 5 μg/kg per dose
Method: Female SD rats (12 weeks old) were ovariectomized and intradermally injected with an aqueous solution of hPTH(1-34) three times at 1 hour intervals at a one time administration dose of 1 μg/kg or 5 μg/kg. Concentration of hPTH(1-34) in serum of the rats was measured by radio immunoassay.

blood concentration profile of hPTH(1-34) in serum [1]: three sharp peaks | maximum blood concentrations vs dose [2]: proportional to the injected doses | blood concentration profile of hPTH(1-34) in serum ([2]; ovariectomized female SD rats, radio immunoassay, FIG. 1): three sharp pulses
Structure (SMILES): CC[C@H](C)[C@H](NC(=O)[C@H](CCC(=O)O)NC(=O)[C@H](CO)NC(=O)[C@@H](NC(=O)[C@@H](N)CO)C(C)C)C(=O)N[C@@H](CCC(N)=O)C(=O)N[C@@H](CC(C)C)C(=O)N[C@@H](CCSC)C(=O)N[C@@H](Cc1cnc[nH]1)C(=O)N[C@@H](CC(N)=O)C(=O)N[C@@H](CC(C)C)C(=O)NCC(=O)N[C@@H](CCCCN)C(=O)N[C@@H](Cc1cnc[nH]1)C(=O)N[C@@H](CC(C)C)C(=O)N[C@@H](CC(N)=O)C(=O)N[C@@H](CO)C(=O)N[C@@H](CCSC)C(=O)N[C@@H](CCC(=O)O)C(=O)N[C@@H](CCCN=C(N)N)C(=O)N[C@H](C(=O)N[C@@H](CCC(=O)O)C(=O)N[C@@H](Cc1c[nH]c2ccccc12)C(=O)N[C@@H](CC(C)C)C(=O)N[C@@H](CCCN=C(N)N)C(=O)N[C@@H](CCCCN)C(=O)N[C@@H](CCCCN)C(=O)N[C@@H](CC(C)C)C(=O)N[C@@H](CCC(N)=O)C(=O)N[C@@H](CC(=O)O)C(=O)N[C@H](C(=O)N[C@@H](Cc1cnc[nH]1)C(=O)N[C@@H](CC(N)=O)C(=O)N[C@@H](Cc1ccccc1)C(=O)O)C(C)C)C(C)C [hPTH(1-34)]
